In patent US12318373B2, “Methods of treating gastrointestinal stromal tumors” (Deciphera Pharmaceuticals, LLC, priority 2019, dated 2025):

Tests used:
[1] = system: patients with advanced GIST; assay: Example 2/6: safety, treatment-emergent adverse events; type: in vivo, human
Protocol: This study was a randomized (2:1), double-blind, placebo-controlled, international, multicenter study to evaluate the safety, tolerability, and efficacy of ripretinib compared to placebo in 129 patients with advanced GIST whose previous therapies have included at least imatinib, sunitinib, and regorafenib. Patients were randomized 2:1 to either 150 mg of ripretinib or placebo once daily. The primary efficacy endpoint is progression-free survival (PFS) as determined by independent radiologic review using modified Response Evaluation Criteria in Solid Tumors (RECIST). Secondary endpoints as determined by independent radiologic review using modified RECIST include Objective Response Rate (ORR), Time to Tumor Progression (TTP) and Overall Survival (OS).
Grade 3 or 4 treatment-emergent adverse events (TEAEs) occurred in 42 (49%) patients on the ripretinib arm compared to 19 (44%) on the placebo arm. Grade 3 or 4 TEAEs>5% of patients in the ripretinib arm were anemia (9%; n=8), abdominal pain (7%; n=6) and hypertension (7%; n=6). Grade 3 or 4 TEAEs>5% of patients in the placebo arm were anemia (14%; n=6). Table 1 lists TEAEs>15% in the ripretinib arm compared to placebo.
The safety of ripretinib and the impact of alopecia and palmar-plantar erythrodysesthesia (PPES) on patient-reported outcomes (PROs) of patients treated in the study described in Example 2 herein are described. […] When stratified by alopecia and PPES, patient reported assessments of function, overall health, and overall quality of life were maintained over time.

GIST [2] = assay: Example 3: clinical study in second-line through fourth-line plus GIST, efficacy at ≥100 mg daily; type: in vivo, human; conditions: for Objective Response Rate by Best Response Includes Unconfirmed: RECIST 1.1, investigator-assessed
Protocol: Results. Data from 178 GIST patients receiving ripretinib at doses of ≥100 mg daily are noted in Table 2. The table includes investigator-assessed objective response rate (ORR) by best response, disease control rate (DCR) and median progression free survival (mPFS), all of which were determined by Response Evaluation Criteria in Solid Tumors (RECIST) version 1.1.

GIST [3] = assay: Example 4: phase 1 study, efficacy by line of therapy at 150 mg QD; type: in vivo, human
Protocol: Efficacy and safety results from the escalation and expansion phases of a phase 1 study for patients with GIST treated at ripretinib 150 mg QD as the starting dose in 28-day cycles are presented. Local, investigator-assessed Response Evaluation Criteria in Solid Tumors (RECIST 1.1) response assessments were performed every 2 cycles, and patients in the expansion cohorts who progressed per RECIST 1.1 were allowed to dose escalate to 150 mg BID.
142 patients with GIST in the escalation and expansion phases were treated at 150 mg QD dose. Number of patients by line of therapy were as follows: 31 2nd line, 28 3rd line, and 83≥4th line patients. 135 patients (95.1%) had KIT-mutant GIST, and 7 patients (4.9%) had PDGFRA-mutant GIST.
For example, the confirmed-only complete response (CR), partial response (PR), stable disease, and progressive disease are presented in Table 4. The objective response rate data in Table 4 relates to the proportion of patients with CR+PR. The median PFS data in Table 4 refers to progression-free survival per investigator assessment, by line of therapy.

[4] = Example 7: coadministration with strong CYP3A inhibitor (itraconazole), exposure; type: in vivo; conditions: coadministration of ripretinib with itraconazole
[5] = Example 9: food effect (high-fat meal) on exposure; type: in vivo
Protocol: The effect of a high-fat breakfast on ripretinib and Compound A exposure was evaluated. A high fat meal consisted of approximately 150, 250, and 500-600 calories from protein, carbohydrate, and fat, respectively. […] Therefore, ripretinib may be taken with or without food at approximately same time each day.

[6] = 150 mg dose with a high-fat meal

For `CCn1c(=O)c(-c2cc(NC(=O)Nc3ccccc3)c(F)cc2Br)cc2cnc(NC)cc21` [ripretinib], the “Alopecia in females (females vs males)” value ([1]; female, human, in vivo) was 56.8%, the “Grade 3 or 4 abdominal pain: patients, %” value ([1]; human, in vivo) was 7% and the “Grade 3 or 4 abdominal pain: patients, number” value ([1]; human, in vivo) was 6. The “Grade 3 or 4 anemia: patients, number” value ([1]; human, in vivo) was 8, the “Grade 3 or 4 hypertension: patients, %” value ([1]; human, in vivo) was 7% and the “Grade 3 or 4 hypertension: patients, number” value ([1]; human, in vivo) was 6. The “Patients with a TEAE leading to dose interruption” value ([1]; human, in vivo) was 23.5%, the “Patients with a TEAE leading to dose reduction” value ([1]; human, in vivo) was 7.1% and the “Grade 3/4 alopecia” value ([1]; in vivo) was “no patients”. For the same molecule, the “Grade 3 PPES” value ([1]; in vivo) was “no patients”, the “Overall safety and tolerability profile” value ([1]; in vivo) was “favorable overall safety and tolerability profile” and the “Serious adverse events of alopecia or PPES” value ([1]; in vivo) was “no serious adverse events”. For the same molecule, the “TEAEs during the crossover period” value ([1]; in vivo) was “no safety concerns”, the “Alopecia in males (females vs males)” value ([1]; male, human, in vivo) was 43.2% and the “Patients with a TEAE leading to death” value ([1]; ripretinib arm) was 5.9%. The “Disease Control Rate at 3 Months” value (GIST [2]; Fourth-Line (n = 60)) was 73%, the “Median Progression Free Survival (mPFS)” value (GIST [2]; Fourth-Line (n = 60)) was 30 weeks and the “Objective Response Rate by Best Response (Confirmed Only)” value (GIST [2]; Fourth-Line (n = 60)) was “(8%)”. The “Objective Response Rate by Best Response Includes Unconfirmed” value (GIST [2]; Fourth-Line (n = 60)) was 15%, the “Disease Control Rate at 3 Months” value (GIST [2]; Second-Line (n = 37)) was 81% and the “Median Progression Free Survival (mPFS)” value (GIST [2]; Second-Line (n = 37)) was 42 weeks. For the same molecule, the “Objective Response Rate by Best Response (Confirmed Only)” value (GIST [2]; Second-Line (n = 37)) was “(22%)”, the “Objective Response Rate by Best Response Includes Unconfirmed” value (GIST [2]; Second-Line (n = 37)) was 30% and the “Disease Control Rate at 3 Months” value (GIST [2]; Third-Line (n = 31)) was 80%. For the same molecule, the “Median Progression Free Survival (mPFS)” value (GIST [2]; Third-Line (n = 31)) was 40 weeks, the “Objective Response Rate by Best Response (Confirmed Only)” value (GIST [2]; Third-Line (n = 31)) was “(13%)” and the “Objective Response Rate by Best Response Includes Unconfirmed” value (GIST [2]; Third-Line (n = 31)) was 23%. For the same molecule, the “Disease Control Rate at 3 Months” value (GIST [2]; ≥Fourth-Line (n = 110)) was 66%, the “Median Progression Free Survival (mPFS)” value (GIST [2]; ≥Fourth-Line (n = 110)) was 24 weeks and the “Objective Response Rate by Best Response (Confirmed Only)” value (GIST [2]; ≥Fourth-Line (n = 110)) was “(7%)”. For the same molecule, the “Objective Response Rate by Best Response Includes Unconfirmed” value (GIST [2]; ≥Fourth-Line (n = 110)) was 11%, the “Duration of response, Median” value (GIST [3]; 150 mg QD, 2nd Line) was 80 weeks and the “Best response (confirmed only): PR, %” value (GIST [3]; 150 mg QD, 2nd Line (n = 31)) was “(19.4) %”. The “Best response (confirmed only): Progressive disease, %” value (GIST [3]; 150 mg QD, 2nd Line (n = 31)) was “(12.9) %”, the “Best response (confirmed only): Stable disease, %” value (shortened to “Best response … Stable disease, %”) (GIST [3]; 150 mg QD, 2nd Line (n = 31)) was “(67.7) %” and the “PFS, Median” value (GIST [3]; 150 mg QD, 2nd Line (n = 31), investigator assessment) was 46.4 weeks. For the same molecule, the “Duration of response: Number of events” value (GIST [3]; 150 mg QD, 2nd Line, n = 6 responders) was 3, the “Best response (confirmed only): PR, %” value (GIST [3]; 150 mg QD, 3rd Line (n = 28)) was “(14.3) %” and the “Best response (confirmed only): Progressive disease, %” value (GIST [3]; 150 mg QD, 3rd Line (n = 28)) was “(21.4) %”. For the same molecule, the “Best response … Stable disease, %” value (GIST [3]; 150 mg QD, 3rd Line (n = 28)) was “(64.3) %”, the “PFS, Median” value (GIST [3]; 150 mg QD, 3rd Line (n = 28), investigator assessment) was 36.3 weeks and the “Duration of response: Number of events” value (GIST [3]; 150 mg QD, 3rd Line, n = 4 responders) was 1. The “Duration of response, Median” value (GIST [3]; 150 mg QD, ≥4th Line) was 76.1 weeks, the “Best response (confirmed only): No response assessment, %” value (GIST [3]; 150 mg QD, ≥4th Line (n = 83)) was “(6.0) %” and the “Best response (confirmed only): Not evaluable, %” value (GIST [3]; 150 mg QD, ≥4th Line (n = 83)) was “(1.2) %”. For the same molecule, the “Best response (confirmed only): PR, %” value (GIST [3]; 150 mg QD, ≥4th Line (n = 83)) was “(7.2) %”, the “Best response (confirmed only): Progressive disease, %” value (GIST [3]; 150 mg QD, ≥4th Line (n = 83)) was “(26.5) %” and the “Best response … Stable disease, %” value (GIST [3]; 150 mg QD, ≥4th Line (n = 83)) was “(59.0) %”. For the same molecule, the “PFS, Median” value (GIST [3]; 150 mg QD, ≥4th Line (n = 83), investigator assessment) was 23.9 weeks, the “Duration of response: Number of events” value (GIST [3]; 150 mg QD, ≥4th Line, n = 6 responders) was 3 and the “PFS of second and third-line patients with Exons 9, 11, 13, or 17 KIT mutations” value (GIST [3]; FIG. 27) was “comparable PFS”. For the same molecule, the “Clinical benefit after dose escalation to 150 mg BID (PFS1 vs PFS2)” value (GIST [3]; regardless of line of therapy, investigator assessment, FIGS. 25A, 25B) was “additional clinical benefit”, the “Increase in AUC0-inf” value [4] was 99% and the “Increase in Cmax” value [4] was 36%. The “AUC0-24h higher by” value [5, 6] was 30%, the “Cmax higher by” value [5, 6] was 22% and the “Clinical significance of the food effect” value ([5]; based on exposure-response analysis) was “not considered to be clinically significant”.
